Tests used:
Format in all cases: biochemical
[1] = target: T1, CjDHAD (dihydroxy-acid dehydratase) (Campylobacter jejuni, UniProt Q9PJ98); assay: DNPH colorimetric endpoint assay with DHIV, 30-min pre-incubation
T1 construct: gene ilvD; hexa-histidine tag at the N-terminal, pET-28a

[2] = target: T2, SaDHAD (dihydroxy-acid dehydratase) (Staphylococcus aureus, UniProt Q2FWK7); assay: as above
T2 construct: gene ilvD; hexa-histidine tag at the N-terminal, pET-28a

[3] = target: T2, SaDHAD (dihydroxy-acid dehydratase); assay: DNPH colorimetric endpoint assay with DHIV, no pre-incubation
[4] = target: T1, CjDHAD (dihydroxy-acid dehydratase); assay: as above

T1 sequence (Q9PJ98 whole entry): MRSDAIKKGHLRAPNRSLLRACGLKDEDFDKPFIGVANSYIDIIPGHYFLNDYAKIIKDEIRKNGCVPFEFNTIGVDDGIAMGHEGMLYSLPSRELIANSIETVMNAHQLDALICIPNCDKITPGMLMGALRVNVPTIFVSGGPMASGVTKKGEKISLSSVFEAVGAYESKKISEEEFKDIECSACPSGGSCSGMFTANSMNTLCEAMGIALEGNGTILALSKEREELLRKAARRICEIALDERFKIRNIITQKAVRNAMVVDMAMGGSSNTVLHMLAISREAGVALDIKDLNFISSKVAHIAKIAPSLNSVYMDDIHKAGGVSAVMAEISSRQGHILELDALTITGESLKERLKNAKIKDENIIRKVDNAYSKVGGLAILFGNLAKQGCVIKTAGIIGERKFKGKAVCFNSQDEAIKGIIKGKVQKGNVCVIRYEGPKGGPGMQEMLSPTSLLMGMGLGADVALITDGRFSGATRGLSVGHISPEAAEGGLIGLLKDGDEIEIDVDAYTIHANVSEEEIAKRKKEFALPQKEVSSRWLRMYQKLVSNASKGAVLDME
T2 sequence (Q2FWK7 whole entry): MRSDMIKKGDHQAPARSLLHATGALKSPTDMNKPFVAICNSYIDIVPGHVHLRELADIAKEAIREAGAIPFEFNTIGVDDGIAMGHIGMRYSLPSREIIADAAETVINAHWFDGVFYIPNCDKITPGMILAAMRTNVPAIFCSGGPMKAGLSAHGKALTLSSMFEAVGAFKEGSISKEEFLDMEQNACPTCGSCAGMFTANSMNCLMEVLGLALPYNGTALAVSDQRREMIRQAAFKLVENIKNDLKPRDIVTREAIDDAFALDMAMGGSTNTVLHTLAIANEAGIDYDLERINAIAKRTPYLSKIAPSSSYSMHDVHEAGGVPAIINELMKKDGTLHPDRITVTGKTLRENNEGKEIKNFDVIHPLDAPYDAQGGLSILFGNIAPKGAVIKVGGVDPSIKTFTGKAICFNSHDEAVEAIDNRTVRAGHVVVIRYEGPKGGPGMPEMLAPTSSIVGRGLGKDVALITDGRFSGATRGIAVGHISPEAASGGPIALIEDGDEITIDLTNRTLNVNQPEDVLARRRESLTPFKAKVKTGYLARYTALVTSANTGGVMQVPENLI

Structure (SMILES) | Ki [1] [µM] | Ki [2] [µM] | Ki [3] [µM] | Ki [4] [µM]
CC(C)N(O)C(=O)C(=O)O [IpOHA] | 32.9 | 7.8 |  | 
CC(C)=C1CC[C@]23CO[C@H](C2)[C@@](O)(C(=O)O)CC[C@@H]13 [aspterric acid] |  |  | 51.6 | 35.1
